Laboratory results from paper PMC9600550, “The pH Robustness of Bacterial Sensing” (mBio, 2022).

Columns and labels:
TtgV = target: T1, TtgV (Pseudomonas putida, UniProt Q93PU6); assay: ITC titration of TtgV with benzonitrile at different pH; format: binding, P. putida DOT-T1E; details: 25°C
T1 construct: made in house

AdmX-LBD = AdmX-LBD (Serratia plymuthica, UniProt P0DV33); assay: ITC titration of AdmX-LBD with indole-3-pyruvic acid at different pH; format: binding, Serratia plymuthica A153
AdmX-LBD, sequence (P0DV33 91-304): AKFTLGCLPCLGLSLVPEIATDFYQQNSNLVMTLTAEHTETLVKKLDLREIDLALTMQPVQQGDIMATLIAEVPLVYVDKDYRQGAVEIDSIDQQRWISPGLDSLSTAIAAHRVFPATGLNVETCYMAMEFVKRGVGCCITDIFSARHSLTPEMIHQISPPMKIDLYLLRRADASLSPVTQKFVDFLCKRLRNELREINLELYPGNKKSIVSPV

McpH-LBD = target: T2, McpH-LBD (Pseudomonas putida, UniProt Q88R14); assay: ITC titration of McpH-LBD with adenine at different pH; format: binding, P. putida KT2440; details: 25°C
T2 construct: pET28b(+) derivative containing a DNA fragment encoding the McpH-LBD; made in house
T2 sequence (Q88R14 51-276): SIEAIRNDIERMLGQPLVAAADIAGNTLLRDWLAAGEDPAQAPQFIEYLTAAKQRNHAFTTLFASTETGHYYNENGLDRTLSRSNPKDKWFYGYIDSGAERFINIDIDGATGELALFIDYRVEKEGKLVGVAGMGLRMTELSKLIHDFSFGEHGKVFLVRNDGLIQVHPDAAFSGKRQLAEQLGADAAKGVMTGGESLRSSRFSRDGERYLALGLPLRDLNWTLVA

TodS-Nter = TodS-Nter (Pseudomonas putida, UniProt E0X9C7); assay: biochemical
TodS-Nter, sequence (E0X9C7 1-584): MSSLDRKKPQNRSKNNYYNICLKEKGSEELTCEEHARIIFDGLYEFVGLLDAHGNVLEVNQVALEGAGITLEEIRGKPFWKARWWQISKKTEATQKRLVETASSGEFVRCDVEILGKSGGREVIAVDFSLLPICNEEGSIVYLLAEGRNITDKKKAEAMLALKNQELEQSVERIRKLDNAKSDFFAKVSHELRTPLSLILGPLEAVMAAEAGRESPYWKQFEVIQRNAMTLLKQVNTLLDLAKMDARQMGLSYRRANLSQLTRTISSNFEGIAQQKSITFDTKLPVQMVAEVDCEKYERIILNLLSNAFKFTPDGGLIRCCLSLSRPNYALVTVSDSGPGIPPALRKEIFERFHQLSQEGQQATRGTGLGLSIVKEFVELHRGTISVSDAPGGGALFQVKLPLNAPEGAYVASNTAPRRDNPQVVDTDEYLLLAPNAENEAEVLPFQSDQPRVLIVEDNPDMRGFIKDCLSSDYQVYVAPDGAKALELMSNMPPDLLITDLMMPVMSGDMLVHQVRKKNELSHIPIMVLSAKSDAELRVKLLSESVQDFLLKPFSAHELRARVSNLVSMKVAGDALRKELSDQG
Procedure: (§1) To assess the pH dependence of ligand-binding, freshly purified proteins were dialyzed overnight into the buffers described in Table S1 and submitted to microcalorimetric titration.
(§2) Freshly purified proteins were dialyzed into the buffers specified in Table S1 and introduced into the sample cell of an VP-microcalorimeter (MicroCal). Proteins at 15 to 100 μM were titrated with 0.25 to 10 mM ligand solutions that were made up in dialysis buffer. For pH-active ligands, the pH of the ligand solutions was adjusted to that of the dialysis buffer by the addition of concentrated HCl or NaOH. Titrations of MBP and McpV-LBD were conducted at 15°C to favor endothermic contributions to binding heats, whereas the remaining titrations were carried out at 25°C. Raw titration data were integrated, corrected for ligand-dilution heats and normalized with the ligand concentrations. Resulting data were fitted with the “One Binding site model” of the MicroCal version of ORIGIN. Provided are the dissociation constants derived from one experiment and the error of curve-fitting.

McpU-LBD = McpU-LBD (Pseudomonas putida, UniProt Q88NI1); assay: biochemical
McpU-LBD, sequence (Q88NI1 50-284): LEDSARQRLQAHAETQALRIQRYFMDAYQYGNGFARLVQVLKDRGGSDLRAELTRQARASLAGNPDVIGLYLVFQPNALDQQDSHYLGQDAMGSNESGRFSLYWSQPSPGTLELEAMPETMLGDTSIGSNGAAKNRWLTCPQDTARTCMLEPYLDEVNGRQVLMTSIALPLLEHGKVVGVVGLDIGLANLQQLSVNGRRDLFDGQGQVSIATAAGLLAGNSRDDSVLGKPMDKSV
Procedure: as §1, §2

McpQ-LBD = target: T3, McpQ-LBD (Pseudomonas putida, UniProt Q88D09); assay: ITC titration of McpQ-LBD with citrate at different pH; format: binding, P. putida KT2440; details: 25°C
T3 construct: pET28b(+) derivative containing a DNA fragment encoding the McpQ-LBD; made in house
T3 sequence (Q88D09 45-282): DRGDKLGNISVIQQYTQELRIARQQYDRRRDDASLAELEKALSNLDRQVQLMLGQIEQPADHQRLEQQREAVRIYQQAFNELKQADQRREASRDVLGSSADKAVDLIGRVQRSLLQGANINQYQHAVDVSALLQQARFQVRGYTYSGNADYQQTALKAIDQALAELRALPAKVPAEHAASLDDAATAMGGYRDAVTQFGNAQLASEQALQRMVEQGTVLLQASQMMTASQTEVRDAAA

[1] = target: the molecule itself; assay: AUC; sedimentation velocity with 1 mM L-Asp, 35 uM protein, pH 3.5, 5.0, 7.0 and 10.0, 10°C, 42,000 rpm; monomer to dimer
[2] = defined as binding with a KD below 1 mM
[3] = pH 6.0, read-out: KD at pH optimum
[4] = ITC, 25°C, defined as binding with a KD below 1 mM

T1 sequence (Q93PU6 whole entry): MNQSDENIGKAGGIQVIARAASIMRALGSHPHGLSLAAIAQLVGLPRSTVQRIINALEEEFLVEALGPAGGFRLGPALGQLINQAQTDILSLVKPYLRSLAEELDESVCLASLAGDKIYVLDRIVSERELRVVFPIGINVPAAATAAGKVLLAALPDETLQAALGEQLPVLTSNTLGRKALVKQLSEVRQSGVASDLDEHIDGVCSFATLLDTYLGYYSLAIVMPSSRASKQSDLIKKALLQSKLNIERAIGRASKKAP

Q: Which pH optimum (TtgV) does the source give for `N#Cc1ccccc1` [Benzonitrile] here?
A: 6.0

Q: And the “pH range of binding” value (TtgV; [2])?
A: 5.0-9.0

Q: And the Kd (TtgV; [3])?
A: 67.6 µM

Q: What does the source list for `O=C(O)C(=O)Cc1c[nH]c2ccccc12` [Indole-3-pyruvic acid]?
A: Kd (AdmX-LBD): 12.7 µM; pH optimum (AdmX-LBD; ITC, 25°C): 8.0; pH range of binding (AdmX-LBD; [4]): 7.5-8.0

Q: What does the source list for `Nc1ncnc2[nH]cnc12` [Adenine]?
A: pH optimum (McpH-LBD): 5.0; pH range of binding (McpH-LBD; [2]): 3.5-10.0; Kd (McpH-LBD; pH 5.0, read-out: KD at pH optimum): 1.68 µM

Q: How did the Kd (TodS-Nter) turn out when `Cc1ccccc1` [Toluene] was run?
A: 0.25 µM

Q: And the “width of pH range of ligand recognition” value (TodS-Nter; ITC)?
A: 4 pH units

Q: What about the pH optimum (TodS-Nter; ITC, 25°C) of the same molecule?
A: 6.5

Q: What about the “pH range of binding” value (TodS-Nter; [4]) of the same molecule?
A: 5.5-9.5

Q: For `NCCCCN` [Putrescine], which Kd (McpU-LBD) is on record?
A: 0.7 µM

Q: And the pH optimum (McpU-LBD; ITC, 25°C)?
A: 8.5

Q: And the “pH range of binding” value (McpU-LBD; [4])?
A: 4.5-11.5

Q: For `O=C(O)CC(O)(CC(=O)O)C(=O)O` [Citrate], which pH optimum (McpQ-LBD) is on record?
A: 6.0

Q: What about the Kd (McpQ-LBD; [3]) of the same molecule?
A: 153 µM

B1: Tar-LBD (ligand-binding domain of the aspartate chemoreceptor Tar of E. coli) (domain or fragment, E. coli K12, UniProt P07017 31-188, looked up)
chain: SSLHHSQKSFVVSNQLREQQGELTSTWDLMLQTRINLSRSAVRMMMDSSNQQSNAKVELLDSARKTLAQAATHYKKFKSMAPLPEMVATSRNIDEKYKNYYTALTELIDYLDYGNTGAYFAQPTQGMQNAMGEAFAQYALSSEKLYRDIVTDNADDYR
notes: Cloned into the NdeI and BamHI sites of pET28b(+) and purified on a HisTrap column; In solution it is a rapidly interchanging mixture of monomer and dimer; also called E. coli Tar-LBD; LBD of the Tar chemoreceptor; source: E. coli BL21(DE3), purified (HisTrap)
Q: B1 was tested. Which “stoichiometry N” value [1] did it give?
A: 2
